# What was measured:
# [1] = target: fibrinolytic enzyme from Southern Copperhead venom (Agkistrodon contortrix contortrix, UniProt P28891); assay: biochemical; format: biochemical, Southern Copperhead snake (A.c. contortrix)
# human plasma clot = assay: Plasma clot lysis, human plasma; format: biochemical; details: plasmin 1.08 caseinolytic units per milliliter, after twenty-four hours
# rabbit plasma clot = assay: Plasma clot lysis, rabbit plasma; format: biochemical; details: plasmin 1.08 caseinolytic units per milliliter, after twenty-four hours
# fibrin clots = assay: Preliminary in vitro evaluation against fibrin clots in plasma; format: biochemical; details: 0.1 mgm purified venom enzyme, or plasmin
# azocasein = details: pure plasmin, for comparison; cited from earlier work
# [2] = system: purified human plasminogen; assay: Plasminogen activation measured by S-2251 hydrolysis; format: biochemical; details: aliquots of the venom enzyme-plasminogen mixture treated with streptokinase
# [3] = system: autologous or human clots; assay: Streptokinase regimens in animal clot models; format: in vivo, dogs, pigs, and rabbits; details: increasing the rate of streptokinase infusion
# fibrinolytic enzyme from Southern Copperhead venom, sequence (P28891 whole entry, looked up): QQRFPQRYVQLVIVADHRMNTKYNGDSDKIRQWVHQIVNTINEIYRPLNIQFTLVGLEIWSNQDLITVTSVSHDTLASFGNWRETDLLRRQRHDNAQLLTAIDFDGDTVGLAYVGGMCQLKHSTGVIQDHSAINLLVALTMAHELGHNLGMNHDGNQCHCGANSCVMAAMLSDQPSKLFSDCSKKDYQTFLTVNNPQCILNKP
compound,measurement,setting,value
O=C(O)CN(CCN(CC(=O)O)CC(=O)O)CC(=O)O [EDTA],Inhibition of the venom fibrinolytic enzyme (in words),[1],inhibited
same,inhibition at 50000 µM,[1]; read-out: Inhibition of Azocaseinolytic Activity,92%
c1cnc2c(c1)ccc1cccnc12 [o-phenanthroline],Inhibition of the venom fibrinolytic enzyme (in words),[1],inhibited
O=C(O)c1cc[c]([Hg][Cl])cc1 [p-Chloromercuribenzoate],Inhibition of the venom fibrinolytic enzyme (in words),[1],not inhibited
plasmin,Plasma clot lysis,human plasma clot,did not lyse
same,Plasma clot lysis,rabbit plasma clot,did not lyse
same,Fibrin clot lysis in plasma clotted with thrombin,fibrin clots,no fibrin clot lysis
same,Plasmin activity,azocasein,30-35 units per mg
streptokinase,S-2251 hydrolyzing activity (plasmin formed),[2],hydrolyzing activity was generated
same,Acceleration of clot lysis,[3],ineffective in significantly accelerating clot lysis
α2 -Macroglobulin,Inhibition of Azocaseinolytic Activity,[1],95%
same,Inhibition of the venom fibrinolytic enzyme (in words),[1],inhibits

# From patent publication US4610879A (priority 1984, dated 1986)
